# From patent publication US20140309210A1, “INDAZOLE COMPOUNDS, COMPOSITIONS AND METHODS OF USE THEREOF” (Genentech, Inc., priority 2011, published 2014)
# Biological target: T1, purified ITK (Invitrogen PV3875) (Homo sapiens, UniProt Q08881)
# T1 construct: purchased Invitrogen PV3875
# T1 sequence (Q08881 1-620): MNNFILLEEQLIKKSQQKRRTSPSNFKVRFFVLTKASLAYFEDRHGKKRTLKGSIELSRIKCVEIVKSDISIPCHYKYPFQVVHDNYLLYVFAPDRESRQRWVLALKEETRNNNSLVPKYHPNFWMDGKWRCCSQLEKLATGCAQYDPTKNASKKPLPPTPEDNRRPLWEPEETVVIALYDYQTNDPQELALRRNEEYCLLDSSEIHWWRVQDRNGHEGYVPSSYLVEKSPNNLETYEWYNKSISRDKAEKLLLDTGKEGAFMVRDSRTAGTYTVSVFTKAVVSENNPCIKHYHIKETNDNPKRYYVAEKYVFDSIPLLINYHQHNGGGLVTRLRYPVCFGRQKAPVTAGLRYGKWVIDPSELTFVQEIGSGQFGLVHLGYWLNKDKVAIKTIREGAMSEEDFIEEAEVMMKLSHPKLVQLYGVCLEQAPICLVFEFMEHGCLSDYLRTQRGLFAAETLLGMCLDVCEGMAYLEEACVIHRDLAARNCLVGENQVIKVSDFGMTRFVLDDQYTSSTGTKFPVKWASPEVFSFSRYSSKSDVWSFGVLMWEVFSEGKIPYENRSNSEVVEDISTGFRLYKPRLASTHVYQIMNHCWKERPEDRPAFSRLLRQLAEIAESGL
# Experiment: ITK peptide phosphorylation assay (Caliper LabChip or LCMS)
# Assay type: biochemical
# Conditions: Table 1, Examples 141-279
# Procedure, shortened: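 Purified human ITK peptide phosphorylation, quenched with EDTA (50 mM final) for Caliper LabChip separation or TCA (5% v/v final) for UPLC-MS/MS MRM quantification. Ki derived via Morrison tight-binding equation, corrected for competitive inhibition using ATP concentration relative to Km,app.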
row,Structure (SMILES),Ki
1,"Cn1nc(C(F)(F)F)cc1-c1ccc2c(C(=O)Nc3cnn(Cc4cccc(C#N)c4)c3)n[nH]c2c1 [Example 198, N-[1-[(3-cyanophenyl)meth-yl]pyrazol-4-yl]-6-[2-methyl-5-(trifluorometh-yl)pyrazol-3-yl]-1H-indazole-3-carboxamide]",183 nM
2,"Cc1cncc(-c2ccc3c(C(=O)Nc4cnn(Cc5cccc(C#N)c5)c4)n[nH]c3c2)c1 [Example 199, N-[1-[(3-cyanophenyl)meth-yl]pyrazol-4-yl]-6-(5-methyl-3-pyridyl)-1H-indazole-3-carboxamide]",8.41 nM
3,"CN(C)CCC(c1cscn1)n1cc(NC(=O)c2n[nH]c3cc(-c4cn[nH]c4)ccc23)cn1 (stereo not shown) [Example 200, N-[1-[3-(dimethylamino)-1-thiazol-4-yl-propyl]pyrazol-4-yl]-6-(1H-pyrazol-4-yl)-1H-indazole-3-carboxamide]",0.727 nM
4,"CN(C)CCC(c1cscn1)n1cc(NC(=O)c2n[nH]c3cc(-c4cn[nH]c4)ccc23)cn1 (stereo not shown) [Example 201, N-[1-[3-(dimethylamino)-1-thiazol-4-yl-propyl]pyrazol-4-yl]-6-(1H-pyrazol-4-yl)-1H indazole-3-carboxamide]",2.89 nM
5,"N#Cc1cccc(Cn2cc(NC(=O)c3n[nH]c4cc(-c5cncs5)ccc34)cn2)c1 [Example 202, N-[1-[(3-cyanophenyl)meth-yl]pyrazol-4-yl]-6-thiazol-5-yl-1H-indazole-3-carboxamide]",5.77 nM
6,"Cn1ccc(-c2ccc3c(C(=O)Nc4cnn(Cc5cccc(C#N)c5)c4)n[nH]c3c2)n1 [Example 203, N-[1-[(3-cyanophenyl)meth-yl]pyrazol-4-yl]-6-(1-methylpyrazol-3-yl)-1H-indazole-3-carboxamide]",1100 nM
7,"O=C(Nc1cnn(Cc2ccccc2)c1)c1n[nH]c2cc(-c3cnccn3)ccc12 [Example 204, N-(1-benzyl-1H-pyrazol-4-yl)-6-(pyrazin-2-yl)-1H-indazole-3-carboxamide]",37.8 nM
8,"O=C(Nc1cnn(Cc2ccccc2)c1)c1n[nH]c2cc(-c3ccnnc3)ccc12 [Example 205, N-(1-benzylpyrazol-4-yl)-6-pyridazin-4 yl-1H-indazole-3 carboxamide]",131 nM
9,"N#Cc1ccc2c(C(=O)Nc3cnn(Cc4ccccc4)c3)n[nH]c2c1 [Example 206, N-(1-benzylpyrazol-4-yl)-6-cyano-1H-indazole-3-carboxamide]",129 nM
10,"O=C(Nc1cnn(Cc2ccccc2)c1)c1n[nH]c2cc(-c3cncc(Cl)c3)ccc12 [Example 207, N-(1-benzylpyrazol-4-yl)-6-(5-chloro-3-pyridyl)-1H-indazole-3-carboxamide]",9.39 nM
11,"COC1CCN(c2ccc3c(C(=O)Nc4cnn(Cc5cccc(C#N)c5)c4)n[nH]c3c2)C1 (stereo not shown) [Example 208, N-[1-[(3-cyanophenyl)meth-yl]pyrazol-4-yl]-6-(3-methoxypyrrolidin-1-yl)-1H-indazole-3-carboxamide]",458 nM
12,"O=C(Nc1cnn(Cc2ccccc2)c1)c1n[nH]c2cc(-c3cnc4c(c3)CCCO4)ccc12 [Example 209, N-(1-benzylpyrazol-4-yl)-6-(3,4-dihydro-2H-pyrano[2,3-b]pyridin-6-yl)-1H-indazole-3-carboxamide]",66.2 nM
13,"O=C(Nc1cnn(Cc2ccccc2)c1)c1n[nH]c2cc(-c3cncc(F)c3)ccc12 [Example 210, N-(1-benzylpyrazol-4-yl)-6-(5-fluoro-3-pyridyl)-1H-indazole-3-carboxamide]",5 nM
14,"CCC(c1ccccc1)n1cc(NC(=O)c2n[nH]c3cc(-c4cncc(OC)c4)ccc23)cn1 (stereo not shown) [Example 211, 6-(5-methoxy-3-pyridyl)-N-[1-(1-phenylpropyl)py-razol-4-yl]-1H-indazole-3-carboxamide]",53.8 nM
15,"COc1cncc(-c2ccc3c(C(=O)Nc4cnn(C(CCN(C)C)c5ccccc5)c4)n[nH]c3c2)c1 (stereo not shown) [Example 212, N-[1-[3-(dimethylamino)-1-phenyl-propyl]pyrazol-4-yl]-6-(5-methoxy-3-pyridyl)-1H-indazole-3-carboxamide]",1.64 nM
16,"COc1cncc(-c2ccc3c(C(=O)Nc4cnn(C(CCN(C)C)c5ccccc5)c4)n[nH]c3c2)c1 (stereo not shown) [Example 213, N-[1-[3-(dimethylamino)-1-phenyl-propyl]pyrazol-4-yl]-6-(5-methoxy-3-pyridyl)-1H-indazole-3-carboxamide]",8.01 nM
17,"CCC(c1ccccc1)n1cc(NC(=O)c2n[nH]c3cc(-c4cncc(OC)c4)ccc23)cn1 (stereo not shown) [Example 214, 6-(5-methoxy-3-pyridyl)-N-[1-(1-phenylpropyl)py-razol-4-yl]-1H-indazole-3-carboxamide]",7.17 nM

# Continued, values first:
row,Ki,Structure (SMILES)
1,17.2 nM,"COc1cncc(-c2ccc3c(C(=O)Nc4cnn(Cc5cccnc5)c4)n[nH]c3c2)c1 [Example 215, 6-(5-methoxy-3-pyridyl)-N-[1-(3-pyridylmethyl)py-razol-4-yl]-1H-indazole-3-carboxamide]"
2,1.12 nM,"O=C(Nc1cnn(Cc2cccnc2)c1)c1n[nH]c2cc(-c3cn[nH]c3)ccc12 [Example 216, 6-(1H-pyrazol-4-yl)-N-[1-(3-pyridylmethyl)py-razol-4-yl]-1H-indazole-3-carboxamide]"
3,404 nM,"CNc1cc(-c2ccc3c(C(=O)Nc4cnn(Cc5ccccc5)c4)n[nH]c3c2)ncn1 [Example 217, N-(1-benzylpyrazol-4-yl)-6-[6-(methylamino)py-rimidin-4-yl]-1H-indazole-3-carboxamide]"
4,3.19 nM,"O=C(Nc1cnn(Cc2ccncc2)c1)c1n[nH]c2cc(-c3cn[nH]c3)ccc12 [Example 218, 6-(1H-pyrazol-4-yl)-N-[1-(4-pyridylmethyl)py-razol-4-yl]-1H-indazole-3-carboxamide]"
5,23 nM,"COc1cncc(-c2ccc3c(C(=O)Nc4cnn(Cc5ccncc5)c4)n[nH]c3c2)c1 [Example 219, 6-(5-methoxy-3-pyridyl)-N-[1-(4-pyridylmethyl)py-razol-4-yl]-1H-indazole-3-carboxamide]"
6,2.93 nM,"O=C(Nc1cnn(Cc2ccccn2)c1)c1n[nH]c2cc(-c3cn[nH]c3)ccc12 [Example 220, 6-(1H-pyrazol-4-yl)-N-[1-(2-pyridylmethyl)py-razol-4-yl]-1H-indazole-3-carboxamide]"
7,51.4 nM,"COc1cncc(-c2ccc3c(C(=O)Nc4cnn(Cc5ccccn5)c4)n[nH]c3c2)c1 [Example 221, 6-(5-methoxy-3-pyridyl)-N-[1-(2-pyridylmethyl)py-razol-4-yl]-1H-indazole-3-carboxamide]"
8,75.3 nM,"COc1cncc(-c2ccc3c(C(=O)Nc4cnn(CC5CCCCC5)c4)n[nH]c3c2)c1 [Example 222, N-[1-(cyclohexylmeth-yl)pyrazol-4-yl]-6-(5-methoxy-3-pyridyl)-1H-indazole-3-carboxamide]"
9,90 nM,"COc1cncc(-c2ccc3c(C(=O)Nc4cnn(C(C)C)c4)n[nH]c3c2)c1 [Example 223, N-(1-isopropylpyrazol-4-yl)-6-(5-methoxy-3-pyridyl)-1H-indazole-3-carboxamide]"
10,5.18 nM,"N#Cc1cccc(Cn2cc(NC(=O)c3n[nH]c4cc(-c5cncc(Cl)c5)ccc34)cn2)c1 [Example 224, 6-(5-chloro-3-pyridyl)-N-[1-[(3-cyanophenyl)meth-yl]pyrazol-4-yl]-1H-indazole-3-carboxamide]"
11,4.85 nM,"O=C(Nc1cnn(Cc2cccnn2)c1)c1n[nH]c2cc(-c3cn[nH]c3)ccc12 [Example 225, 6-(1H-pyrazol-4-yl)-N-[1-(pyridazin-3-ylmethyl)pyrazol-4-yl]-1H-indazole-3-carboxamide]"
